Read-outs that look alike come from different tables or passages of the source.
What was measured:
[1] = test system: H460 cells
[2] = test system: H460 cells; assay: Intracellular activation of hypoxia activated prodrugs (drug metabolism in medium of cells, LC-MS/UV 370 nm); settings: for Example 12 compound UV peak area (370 nm): drug only (no cells), ~30 μM, 3 hours 37° C
[3] = test system: H460 cells; assay: Clonogenic toxicity assay; type: cell-based, human; settings: 2 hr compound exposure; for IC90: Homo sapiens, NCI-H460, normoxic (air) and anoxic, no significant difference
Description: The clonogenic assay measures the reproductive ability of a surviving cell by specifically determining if a cell can grow to form a colony of greater than 50 cells. Briefly, cells are treated with a drug for an acute exposure and then the drug is removed. Cells are trypinized to form single cell suspensions and known numbers of cells are plated and incubated until colonies form. Colonies are counted and the cell survival is calculated based on number of colonies formed in the treated groups compared to number of colonies formed in the untreated controls. […] The terms aerobic and normoxic are used interchangeably.
Exponentially growing human H460 cells (obtained from ATCC) were seeded into 60 mm notched glass plates between 2.5 and 5×10^5 cells per plate and grown in RPMI medium supplemented with 10% fetal bovine serum for 2 days prior to initiating treatment. On the day of the experiment drug stocks of known concentrations were prepared in complete medium and 2 ml added to each plate. Glass plates were sealed into airtight aluminum vessels equipped with a valve to control gas flow. To achieve complete equilibration between the gas phase and the liquid phase a series of gas exchanges were performed on each vessel while shaking. Vessels were evacuated and gassed with either a certified anoxic gas mixture (95% nitrogen and 5% carbon dioxide) or with aerobic gas mixture (95% air and 5% carbon dioxide). Specifically, each vessel was evacuated to minus 26 inches of mercury and held for 15 seconds before gassing at 20 psi and again holding for 15 seconds. After a series of five evacuations and gassings the vessels were held an additional 5 minutes before a final evacuation and refilling of each vessel with the desired gas mixture at 0.5 psi above atmospheric pressure. Cells were incubated for 2 hours at 37° C. […] The exact concentration of each stock was determined by counting with a Coulter Z2 particle counter. […] Colonies of greater than 50 cells were counted and the surviving fraction determined.

CCC1(O)C(=O)OCc2c1cc1n(c2=O)Cc2cc3cc(OCc4cnc([N+](=O)[O-])n4C)ccc3cc2-1 (stereo not drawn) [Example 12]
release of 10 hydroxycamptothecin [1]: no detectable release | 10-Hydroxy Campothecin UV peak area (370 nm) ([1]; 3 h, 30 uM): ~0 | selectivity of release mechanism (anoxic versus hypoxic) ([2]; in words): highly selective | degree of release (conversion to 10 hydroxy-camptothecin) ([2]; trial 4: anoxic, with H460 cells): over half

COc1cccc2c1C(=O)c1c(O)c3c(c(O)c1C2=O)C[C@@](O)(C(C)=O)C[C@@H]3O[C@H]1C[C@H](N)[C@H](O)[C@H](C)O1 [daunorubicin]
toxicity difference between normoxic (air) and anoxic conditions [3]: no significant toxicity difference | IC90 ([3]; read-out: IC 90 (90% inhibition of colony formation)): 0.5 µM | IC90 ([3]; read-out: IC 90 data ranges over multiple experiments): 0.2 to 1 µM

CC[C@@]1(O)C(=O)OCc2c1cc1n(c2=O)Cc2cc3cc(O)ccc3nc2-1 [10-OH Camptothecin, 10-Hydroxycamptothecin, reference compound]
Example 12 compound UV peak area (370 nm) ([2]; aerobic): 0 | Example 12 compound UV peak area (370 nm) ([2]; anoxic): 0
